Results published in publication PMC10529912 (European journal of medicinal chemistry, 2023).
Read-outs that look alike come from different tables or passages of the source.

Experiments:
[1] = target: SARS-CoV-2 main protease (Mpro) (Severe acute respiratory syndrome coronavirus 2, UniProt P0DTD1); assay: SARS-CoV-2 Mpro FRET enzymatic assay; assay type: biochemical
SARS-CoV-2 Mpro = SARS-CoV-2 Mpro (Severe acute respiratory syndrome coronavirus 2, UniProt P0DTD1); assay: Mpro enzyme kinetics, Morrison plot Ki determination; assay type: biochemical
[2] = test system: SARS-CoV-2 (isolate USA WA1/2020); assay type: cell-based; conditions: read-out: EC50 (antiviral); Calu-3 cells, MOI 0.5, 48 hours

Row | Molecule | IC50 [1] [nM] | other results
1 | C#CC(=O)N(c1ccc(-c2ccccc2)cc1)C(C(=O)N[C@@H](C)c1ccccc1)c1cccnc1 (stereo partly drawn) [Jun10221R, N-([1,1’-biphenyl]-4-yl)-N-((S)-2-oxo-2-(((S)-1-phenylethyl)amino)-1-(pyridin-3-yl)ethyl)propiolamide] | 20 | –
2 | CCCC#CC(=O)N(c1ccc(-c2ccccc2)cc1)C(C(=O)N[C@@H](C)c1ccccc1)c1cccnc1 (stereo partly drawn) [Jun10923, N-([1,1’-biphenyl]-4-yl)-N-(2-oxo-2-(((S)-1-phenylethyl)amino)-1-(pyridin-3-yl)ethyl)hex-2-ynamide] | 2510 | –
3 | C[C@H](NC(=O)C(c1cccnc1)N(C(=O)C#CC(C)(C)C)c1ccc(-c2ccccc2)cc1)c1ccccc1 (stereo partly drawn) [Jun10925, N-([1,1’-biphenyl]-4-yl)-4,4-dimethyl-N-(2-oxo-2-(((S)-1-phenylethyl)amino)-1-(pyridin-3-yl)ethyl)pent-2-ynamide] | > 20000 | –
4 | COc1ccc(/C=C(\C#N)C(=O)N(c2ccc(-c3ccccc3)cc2)C(C(=O)N[C@@H](C)c2ccccc2)c2cccnc2)cc1 (stereo partly drawn) [Jun10963R, (E)-N-([1,1’-biphenyl]-4-yl)-2-cyano-3-(4-methoxyphenyl)-N-((S)-2-oxo-2-(((S)-1-phenylethyl)amino)-1-(pyridin-3-yl)ethyl)acrylamide] | 560 | Ki (SARS-CoV-2 Mpro): 573 nM
5 | COc1ccc(/C=C(\C#N)C(=O)N(c2ccc(-c3ccccc3)cc2)C(C(=O)N[C@@H](C)c2ccccc2)c2cccnc2)cc1 (stereo partly drawn) [Jun10963S, (E)-N-([1,1’-biphenyl]-4-yl)-2-cyano-3-(4-methoxyphenyl)-N-((R)-2-oxo-2-(((S)-1-phenylethyl)amino)-1-(pyridin-3-yl)ethyl)acrylamide] | > 20000 | –
6 | N-([1,1’-biphenyl]-4-yl)-2-cyano-N-((S)-2-oxo-2-(((S)-1-phenylethyl)amino)-1-(pyridin-3-yl)ethyl)acetamide [Jun10541R] | – | Ki (SARS-CoV-2 Mpro; Morrison equation fit, 20 μM FRET substrate, no preincubation): 345 nM; EC50 [2]: 2920 nM; cytotoxicity to Calu-3 cells (Calu-3 cells): not cytotoxic
